According to PMC8085067, “The dimer-monomer equilibrium of SARS-CoV-2 main protease is affected by small molecule inhibitors” (Scientific Reports, 2021):
“Also recorded” adds a separate entry of the source.

Biological target: SARS-CoV-2 M^pro dimer-monomer equilibrium (Severe acute respiratory syndrome coronavirus 2, UniProt P0DTD1)
Test: SAXS analysis of M^pro dimer-monomer equilibrium in presence of inhibitors
Conditions: for effect on M^pro dimer-monomer equilibrium (in words): SAXS; for αCp (rate of change of dissociation heat capacity with inhibitor concentration) / αS (rate of change of dissociation entropy with inhibitor concentration) / αG (rate of change of dissociation Gibbs free energy with inhibitor concentration): global SAXS fit, M^pro 30 μM; for αG (rate of change of dissociation Gibbs free energy with inhibitor concentration): inhibitor 30 and 60 μM, 30-45 °C

OCCN(CCOc1c(F)c(F)c(-c2nc(-c3ccncc3)no2)c(F)c1F)CCOc1c(F)c(F)c(-c2nc(-c3ccncc3)no2)c(F)c1F [Inhibitor 3]
effect on M^pro dimer-monomer equilibrium (in words): do not affect in a significant way the dimer-monomer equilibrium; also recorded: does not alter the native dissociation equilibrium
αCp (rate of change of dissociation heat capacity with inhibitor concentration): 0±4 10^-2 μM^-1
αS (rate of change of dissociation entropy with inhibitor concentration): -8±4 10^-2 μM^-1
αG (rate of change of dissociation Gibbs free energy with inhibitor concentration): 0.00±0.08 10^-2 μM^-1

Fc1c(F)c(N2CCOCCOCCOCCOCCOCC2)c(F)c(F)c1-c1nc(-c2ccccc2)no1 [Inhibitor 4, 16-(2,3,5,6-tetrafluoro-4-(3-phenyl-1,2,4-oxadiazol-5-yl)phenyl)-1,4,7,10,13-pentaoxa-16-azacyclooctadecane]
effect on M^pro dimer-monomer equilibrium (in words): do not affect in a significant way the dimer-monomer equilibrium; also recorded: very weak stabilizing effect of the dimer
αCp (rate of change of dissociation heat capacity with inhibitor concentration): -2±2 10^-2 μM^-1
αS (rate of change of dissociation entropy with inhibitor concentration): -1±5 10^-2 μM^-1
αG (rate of change of dissociation Gibbs free energy with inhibitor concentration): 0.0±0.1 10^-2 μM^-1

CCNC(=O)c1noc(-c2c(F)c(F)c(NCCN(CCNc3c(F)c(F)c(-c4nc(C(=O)NCC)no4)c(F)c3F)CCNc3c(F)c(F)c(-c4nc(C(=O)NCC)no4)c(F)c3F)c(F)c2F)n1 [Inhibitor 7, 5,5’,5”-(((nitrilotris(ethane-2,1-diyl))tris(azanediyl))tris(2,3,5,6-tetrafluorobenzene-4,1-diyl))tris(N-ethyl-1,2,4-oxadiazole-3-carboxamide)]
effect on M^pro dimer-monomer equilibrium (in words): mostly able to increase the dissociation equilibrium constant
αCp (rate of change of dissociation heat capacity with inhibitor concentration): -3±3 10^-2 μM^-1
αS (rate of change of dissociation entropy with inhibitor concentration): -5±2 10^-2 μM^-1
αG (rate of change of dissociation Gibbs free energy with inhibitor concentration): -0.19±0.07 10^-2 μM^-1
